We go through 18 compounds from patent US9579314B2 (priority 2015, dated 2017).

One assay addresses Human M3 receptor (Homo sapiens, UniProt P20309). Particulars: read-out: M3 binding affinity.
Another assay has as its target Human β2 adrenoceptor (Homo sapiens, UniProt P07550). The note with it: read-out: B2 binding affinity.

Where a name gives a salt, the structure may show the parent alone.

Human β2 adrenoceptor, sequence (P07550 whole entry): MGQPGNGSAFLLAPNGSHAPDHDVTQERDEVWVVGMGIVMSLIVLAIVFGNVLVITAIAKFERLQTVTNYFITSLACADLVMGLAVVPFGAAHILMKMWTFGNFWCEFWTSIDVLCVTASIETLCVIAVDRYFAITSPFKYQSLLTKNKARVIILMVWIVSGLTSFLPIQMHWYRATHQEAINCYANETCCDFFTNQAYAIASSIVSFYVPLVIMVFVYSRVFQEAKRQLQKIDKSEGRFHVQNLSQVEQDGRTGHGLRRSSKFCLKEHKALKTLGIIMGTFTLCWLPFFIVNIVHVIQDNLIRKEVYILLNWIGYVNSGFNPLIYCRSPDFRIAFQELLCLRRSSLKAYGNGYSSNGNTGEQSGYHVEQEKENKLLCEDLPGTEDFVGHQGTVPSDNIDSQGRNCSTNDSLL
Human M3 receptor, sequence (P20309 whole entry): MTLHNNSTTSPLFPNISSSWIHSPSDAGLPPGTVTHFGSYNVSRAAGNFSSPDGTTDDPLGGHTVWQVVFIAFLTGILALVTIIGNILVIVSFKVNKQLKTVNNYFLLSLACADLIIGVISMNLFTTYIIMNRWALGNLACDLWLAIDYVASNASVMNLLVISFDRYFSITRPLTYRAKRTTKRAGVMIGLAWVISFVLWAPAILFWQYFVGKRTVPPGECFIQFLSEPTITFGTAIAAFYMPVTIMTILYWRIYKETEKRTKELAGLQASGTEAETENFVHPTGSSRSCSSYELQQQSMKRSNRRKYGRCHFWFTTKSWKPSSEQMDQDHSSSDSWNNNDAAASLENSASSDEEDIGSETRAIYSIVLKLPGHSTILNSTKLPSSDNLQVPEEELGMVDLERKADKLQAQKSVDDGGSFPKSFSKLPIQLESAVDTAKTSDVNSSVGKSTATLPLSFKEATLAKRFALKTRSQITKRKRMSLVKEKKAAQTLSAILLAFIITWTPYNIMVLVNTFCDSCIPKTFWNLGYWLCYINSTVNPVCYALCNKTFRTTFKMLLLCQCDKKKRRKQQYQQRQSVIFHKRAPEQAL

Turning to `O=C(COc1cccc([C@](O)(C(=O)OCC2CCN(Cc3ccccc3)CC2)c2ccccc2)c1)NCCNC(=O)c1ccc(CNC[C@H](O)c2ccc(O)c3[nH]c(=O)ccc23)cc1` [Compound 57, (1-Benzylpiperidin-4-yl)methyl (S)-2-hydroxy-2-(3-(2-((2-(4-((((R)-2-hydroxy-2-(8-hydroxy-2-oxo-1,2-dihydroquinolin-5-yl)ethyl)amino)methyl)benzamido)ethyl)amino)-2-oxoethoxy)phenyl)-2-phenylacetate], the IC50 on Human M3 receptor and at Human β2 adrenoceptor was 0.3 to 3 nM in each case.
`O=C(COc1cccc([C@](O)(C(=O)OCC2CCN(Cc3ccccc3)CC2)c2ccccc2)c1)N[C@H]1C[C@H](NC(=O)c2ccc(CNC[C@H](O)c3ccc(O)c4[nH]c(=O)ccc34)c(C(F)(F)F)c2)C1` [Compound 138, (1-benzylpiperidin-4-yl)methyl (S)-2-hydroxy-2-(3-(2-(((1R,3S)-3-(4-((((R)-2-hydroxy-2-(8-hydroxy-2-oxo-1,2-dihydroquinolin-5-yl)ethyl)amino)methyl)-3-(trifluoromethyl)benzamido)cyclobutyl)amino)-2-oxoethoxy)phenyl)-2-phenylacetate]: the IC50 at Human M3 receptor and at Human β2 adrenoceptor was 0.3 to 3 nM in each case.
As to `O=C(Nc1cccc(C(O)(C(=O)OCC2CCN(Cc3ccccc3)CC2)c2ccccc2)c1)OCCCCCNC[C@H](O)c1ccc(O)c2[nH]c(=O)ccc12` (stereo partly drawn) [Compound 54, (1-benzylpiperidin-4-yl)methyl 2-hydroxy-2-(3-((((5-(((R)-2-hydroxy-2-(8-hydroxy-2-oxo-1,2-dihydroquinolin-5-yl)ethyl)amino)pentyl)oxy)carbonyl)amino)-phenyl)-2-phenylacetate bis hydrochloride], the IC50 on Human M3 receptor is 0.3 to 3 nM; on Human β2 adrenoceptor it was less than 0.3 nM.
Consider `O=C(c1ccc(CCNC[C@H](O)c2ccc(O)c3[nH]c(=O)ccc23)cc1)N1CCC2(CC1)CCN(C(=O)c1ccc(COc3cccc([C@](O)(C(=O)OCC4CCN(Cc5ccccc5)CC4)c4ccccc4)c3)cc1)CC2` [Compound 115, (1-benzylpiperidin-4-yl)methyl (S)-2-hydroxy-2-(3-((4-(9-(4-(2-(((R)-2-hydroxy-2-(8-hydroxy-2-oxo-1,2-dihydroquinolin-5-yl)ethyl)amino)ethyl)benzoyl)-3,9-diazaspiro[5.5]undecane-3-carbonyl)benzyl)oxy)phenyl)-2-phenylacetate], for which the IC50 on Human M3 receptor and at Human β2 adrenoceptor was 0.3 to 3 nM throughout.
For the compound `O=C(COc1cccc([C@](O)(C(=O)OCC2CCN(Cc3ccccc3)CC2)c2ccccc2)c1)N[C@H]1CCCN(C(=O)c2ccc(CCNC[C@H](O)c3ccc(O)c4[nH]c(=O)ccc34)cc2)C1` [Compound 106, (1-benzylpiperidin-4-yl)methyl (S)-2-hydroxy-2-(3-(2-(((S)-1-(4-(2-(((R)-2-hydroxy-2-(8-hydroxy-2-oxo-1,2-dihydroquinolin-5-yl)ethyl)amino)ethyl)benzoyl)piperidin-3-yl)amino)-2-oxoethoxy)phenyl)-2-phenylacetate], the IC50 on Human M3 receptor and at Human β2 adrenoceptor was 0.3 to 3 nM each time.
As to `CN1CCC(COC(=O)[C@](O)(c2ccccc2)c2cccc(OCCCCCNC[C@H](O)c3ccc(O)c4[nH]c(=O)ccc34)c2)CC1` [Compound 23, (S)-(1-methylpiperidin-4-yl)methyl 2-hydroxy-2-(3-((5-(((R)-2-hydroxy-2-(8-hydroxy-2-oxo-1,2-dihydroquinolin-5-yl)ethyl)amino)pentyl)oxy)phenyl)-2-phenylacetate], the IC50 on Human M3 receptor and at Human β2 adrenoceptor was 0.3 to 3 nM throughout.
As to `O=C(OCC1CCN(Cc2ccccc2)CC1)[C@@](O)(c1ccccc1)c1cccc(OCCCCCCNCC(O)c2ccc(O)c3[nH]c(=O)ccc23)c1` (stereo in doubt) [Compound 27, (R)-(1-benzylpiperidin-4-yl)methyl 2-hydroxy-2-(3-((6-(((R)-2-hydroxy-2-(8-hydroxy-2-oxo-1,2-dihydroquinolin-5-yl)ethyl)amino)hexyl)oxy)phenyl)-2-phenylacetate], the values for the IC50 on Human M3 receptor and on Human β2 adrenoceptor were more than 3 nM and 0.3 to 3 nM, respectively.
Regarding `O=C(OCC1CCN(Cc2ccccc2)CC1)[C@](O)(c1ccccc1)c1cccc(OCCCCCCCCNCC(O)c2ccc(O)c3[nH]c(=O)ccc23)c1` (stereo in doubt) [Compound 30, (S)-(1-benzylpiperidin-4-yl)methyl 2-hydroxy-2-(3-((8-(((R)-2-hydroxy-2-(8-hydroxy-2-oxo-1,2-dihydroquinolin-5-yl)ethyl)amino)octyl)oxy)phenyl)-2-phenylacetate], the IC50 at Human M3 receptor and at Human β2 adrenoceptor was 0.3 to 3 nM throughout.
Turning to `O=C(OCC1CCN(Cc2ccccc2)CC1)[C@@](O)(c1ccccc1)c1cccc(OCCCCCNC[C@H](O)c2ccc(O)c3[nH]c(=O)ccc23)c1` [Compound 14, (R)-(1-benzylpiperidin-4-yl)methyl 2-hydroxy-2-(3-((5-(((R)-2-hydroxy-2-(8-hydroxy-2-oxo-1,2-dihydroquinolin-5-yl)ethyl)amino)pentyl)oxy)phenyl)-2-phenylacetate], the IC50 on Human M3 receptor is more than 3 nM; on Human β2 adrenoceptor it was less than 0.3 nM.
The corresponding values for `O=C(c1ccc(CNC[C@H](O)c2ccc(O)c3[nH]c(=O)ccc23)cc1)N1C[C@H]2CCN(C(=O)COc3cccc([C@](O)(C(=O)OCC4CCN(Cc5ccccc5)CC4)c4ccccc4)c3)[C@H]2C1` [Compound 74, (1-benzylpiperidin-4-yl)methyl (S)-2-hydroxy-2-(3-(2-((3aR,6aR)-5-(4-((((R)-2-hydroxy-2-(8-hydroxy-2-oxo-1,2-dihydroquinolin-5-yl)ethyl)amino)methyl)benzoyl)hexahydropyrrolo[3,4-b]pyrrol-1(2H)-yl)-2-oxoethoxy)phenyl)-2-phenylacetate] are 0.3 to 3 nM and 0.3 to 3 nM.
As to `O=C(NCCCOc1cccc([C@](O)(C(=O)OCC2CCN(Cc3ccccc3)CC2)c2ccccc2)c1)c1ccc(CNC[C@H](O)c2ccc(O)c3[nH]c(=O)ccc23)c(F)c1F` [Compound 32L, (S)-(1-benzylpiperidin-4-yl)methyl 2-(3-(3-(2,3-difluoro-4-((((R)-2-hydroxy-2-(8-hydroxy-2-oxo-1,2-dihydroquinolin-5-yl)ethyl)amino)methyl)benzamido)propoxy)phenyl)-2-hydroxy-2-phenylacetate], the IC50 on Human M3 receptor is 0.3 to 3 nM; on Human β2 adrenoceptor, more than 3 nM.
In the case of `O=C(c1ccc(CNC[C@H](O)c2ccc(O)c3[nH]c(=O)ccc23)cc1)N1CC(COc2cccc([C@](O)(C(=O)OCC3CCN(Cc4ccccc4)CC3)c3ccccc3)c2)C1` [Compound 41, (S)-(1-benzylpiperidin-4-yl)methyl 2-hydroxy-2-(3-((1-(4-((((R)-2-hydroxy-2-(8-hydroxy-2-oxo-1,2-dihydroquinolin-5-yl)ethyl)amino)methyl)-benzoyl)azetidin-3-yl)methoxy)phenyl)-2-phenylacetate], the IC50 at Human M3 receptor and at Human β2 adrenoceptor was 0.3 to 3 nM throughout.
`O=C(COc1cccc([C@](O)(C(=O)OCC2CCN(Cc3ccccc3)CC2)c2ccccc2)c1)N1CCC(CCNC[C@H](O)c2ccc(O)c3[nH]c(=O)ccc23)CC1` [Compound 36A, (1-benzylpiperidin-4-yl)methyl (S)-2-hydroxy-2-(3-(2-(4-(2-(((R)-2-hydroxy-2-(8-hydroxy-2-oxo-1,2-dihydroquinolin-5-yl)ethyl)amino)ethyl)piperidin-1-yl)-2-oxoethoxy)phenyl)-2-phenylacetate]: the IC50 at Human M3 receptor and at Human β2 adrenoceptor was 0.3 to 3 nM in each case.
On to `O=C(NCCN(Cc1ccccc1)C(=O)COc1cccc([C@](O)(C(=O)OCC2CCN(Cc3ccccc3)CC2)c2ccccc2)c1)c1ccc(CCNC[C@H](O)c2ccc(O)c3[nH]c(=O)ccc23)cc1` [Compound 87, (1-benzylpiperidin-4-yl)methyl (S)-2-(3-(2-(benzyl(2-(4-(2-(((R)-2-hydroxy-2-(8-hydroxy-2-oxo-1,2-dihydroquinolin-5-yl)ethyl)amino)ethyl)benzamido)ethyl)amino)-2-oxoethoxy)phenyl)-2-hydroxy-2-phenylacetate], for which the IC50 at Human M3 receptor and on Human β2 adrenoceptor was 0.3 to 3 nM in each case.
Turning to `O=C(COc1cccc([C@](O)(C(=O)OCC2CCN(Cc3ccccc3)CC2)c2ccccc2)c1)N[C@H]1C[C@H](NC(=O)c2ccc(CNC[C@H](O)c3ccc(O)c4[nH]c(=O)ccc34)cc2Cl)C1` [Compound 133, (1-benzylpiperidin-4-yl)methyl (S)-2-(3-(2-(((1R,3S)-3-(2-chloro-4-((((R)-2-hydroxy-2-(8-hydroxy-2-oxo-1,2-dihydroquinolin-5-yl)ethyl)amino)methyl)benzamido)cyclobutyl)amino)-2-oxoethoxy)phenyl)-2-hydroxy-2-phenylacetate], the IC50 on Human M3 receptor and at Human β2 adrenoceptor was less than 0.3 nM each time.
For the compound `O=C(c1ccc(CCNC[C@H](O)c2ccc(O)c3[nH]c(=O)ccc23)cc1)N1CCC2(CC1)CN(C(=O)c1ccc(COc3cccc([C@](O)(C(=O)OCC4CCN(Cc5ccccc5)CC4)c4ccccc4)c3)cc1)CCO2` [Compound 121, (1-benzylpiperidin-4-yl)methyl (S)-2-hydroxy-2-(3-((4-(9-(4-(2-(((R)-2-hydroxy-2-(8-hydroxy-2-oxo-1,2-dihydroquinolin-5-yl)ethyl)amino)ethyl)benzoyl)-1-oxa-4,9-diazaspiro[5.5]undecane-4-carbonyl)benzyl)oxy)phenyl)-2-phenylacetate], the IC50 on Human M3 receptor and at Human β2 adrenoceptor was less than 0.3 nM throughout.
For the compound `O=C(NCCc1cccc(C(O)(C(=O)OCC2CCN(Cc3ccccc3)CC2)c2ccccc2)c1)c1ccc(CNCC(O)c2ccc(O)c3[nH]c(=O)ccc23)cc1` (stereo in doubt) [Compound 39, (1-benzylpiperidin-4-yl)methyl 2-hydroxy-2-(3-(2-(4-((((R)-2-hydroxy-2-(8-hydroxy-2-oxo-1,2-dihydroquinolin-5-yl)ethyl)amino)methyl)benzamido)ethyl)phenyl)-2-phenylacetate], the IC50 at Human M3 receptor was 0.3 to 3 nM; on Human β2 adrenoceptor it was less than 0.3 nM.
As for `Cc1cccc(C(O)(C(=O)OCC2CCN(Cc3ccccc3)CC2)c2cccc(OCCCCCNC[C@H](O)c3ccc(O)c4[nH]c(=O)ccc34)c2)c1` (stereo partly drawn) [Compound 5, (1-benzylpiperidin-4-yl)methyl 2-hydroxy-2-(3-((5-(((R)-2-hydroxy-2-(8-hydroxy-2-oxo-1,2-dihydroquinolin-5-yl)ethyl)amino)pentyl)oxy)phenyl)-2-(m-tolyl)acetate], the IC50 on Human M3 receptor and on Human β2 adrenoceptor was 0.3 to 3 nM each time.
